# From ChEMBL document CHEMBL1129907, “The SAR of UK-78,282: A novel blocker of human T cell Kv1.3 potassium channels” (Bioorg Med Chem Lett, 1997)
# System: T-cell line
# Experiment: In vitro inhibitory potency against human T-cells Rb efflux
# Assay type: functional, cell-based
row,SMILES,IC50 [nM]
1,COc1ccc(CCCN2CCC(COCc3ccc(Cl)cc3)CC2)cc1,500
2,CCCN1CCC(COC(c2ccccc2)c2ccccc2)CC1,17800
3,COc1ccccc1CCCN1CCC(COC(c2ccccc2)c2ccccc2)CC1,2400
4,Clc1ccc(CCCN2CCC(COC(c3ccccc3)c3ccccc3)CC2)cc1Cl,2200
5,CCCCCN1CCC(COC(c2ccccc2)c2ccccc2)CC1,10800
6,CCCCCCCCCCN1CCC(COC(c2ccccc2)c2ccccc2)CC1,2600
7,CCCCCCCCCN1CCC(COC(c2ccccc2)c2ccccc2)CC1,700
8,C(#Cc1ccccc1)CN1CCC(COC(c2ccccc2)c2ccccc2)CC1,> 20000
9,COc1ccc(CCCN2CCC(COCc3ccccc3)CC2)cc1,2100
10,COc1cccc(CCCN2CCC(COC(c3ccccc3)c3ccccc3)CC2)c1,1500
11,COc1ccc(CCCN2CCC(CNC(c3ccccc3)c3ccccc3)CC2)cc1,2800
12,COc1ccc(CCCN2CCC(COCc3ccc(Cl)c(Cl)c3)CC2)cc1,200
13,CCCCCCCN1CCC(COC(c2ccccc2)c2ccccc2)CC1,500
14,COc1ccc(CCCN2CCC(COCC3CCCCC3)CC2)cc1,3000
15,CCCCCCN1CCC(COC(c2ccccc2)c2ccccc2)CC1,5500
16,COc1ccc(CCCN2CCC(CCC(c3ccccc3)c3ccccc3)CC2)cc1,200
17,Cc1ccc(CCCN2CCC(COC(c3ccccc3)c3ccccc3)CC2)cc1,200
18,COc1ccc(CCCN2CCC(=CCC(c3ccccc3)c3ccccc3)CC2)cc1,400
19,COc1ccc(CCCN2CCC(COC(c3ccc(Cl)cc3)c3ccc(Cl)cc3)CC2)cc1,1100
20,COc1ccc(CCCN2CCC(COC(c3ccc(Br)cc3)c3ccc(Br)cc3)CC2)cc1,3200
21,COc1ccc(CCCN2C3CCC2CC(COC(c2ccccc2)c2ccccc2)C3)cc1 (stereo not given),400
22,COc1ccc(CCCN2CCN(CCC(c3ccccc3)c3ccccc3)CC2)cc1,2700
23,COc1ccc(CCCN2CCC(CO)CC2)cc1,> 20000
24,CCCCCCCCN1CCC(COC(c2ccccc2)c2ccccc2)CC1,700

# Results, then the molecule that gave them:
row,IC50 [nM],SMILES
1,2900,COc1ccc(CCN2CCC(COC(c3ccccc3)c3ccccc3)CC2)cc1
2,700,c1ccc(CCCN2CCC(COC(c3ccccc3)c3ccccc3)CC2)cc1
3,500,Clc1ccc(CCCN2CCC(COC(c3ccccc3)c3ccccc3)CC2)cc1
4,400,COc1ccc(CCCN2CCC(COC(c3ccccc3)c3ccccc3)CC2)cc1
5,800,Clc1ccccc1CCCN1CCC(COC(c2ccccc2)c2ccccc2)CC1
6,5600,c1ccc(C(OCC2CCN(CC3CCc4ccccc4C3)CC2)c2ccccc2)cc1 (stereo not given)
7,200,COc1ccc(CCCN2CCC(COC(c3ccccc3)c3ccc(Cl)cc3)CC2)cc1 (stereo not given)
8,> 20000,CN1CCC(COC(c2ccccc2)c2ccccc2)CC1
9,5900,COc1ccc(CCCN2CCC(COCc3ccccn3)CC2)cc1
10,1500,COc1ccc(CCCN2CCC(C(O)CC(c3ccccc3)c3ccccc3)CC2)cc1 (stereo not given)
11,14000,CCCCN1CCC(COC(c2ccccc2)c2ccccc2)CC1
12,3400,COc1ccc(CC2(CN3CCC(COC(c4ccccc4)c4ccccc4)CC3)CCCCC2)cc1
13,> 20000,COc1ccc(CCC[n+]2ccc(COC(c3ccccc3)c3ccccc3)cc2)cc1
14,> 20000,CCN1CCC(COC(c2ccccc2)c2ccccc2)CC1
15,4300,COc1ccc(/C=C/CN2CCC(COC(c3ccccc3)c3ccccc3)CC2)cc1

# System: T-cell line
# Experiment: In vitro inhibition of Rb efflux in human T-cells; 1-10
# Assay type: functional, cell-based
row,SMILES,IC50 [nM]
1,CCCCCCC[N+](CC)(CC)CCCCc1ccc(Cl)cc1 [CLOFILIUM],1000
2,COc1ccc(Cl)cc1C(=O)NCCc1ccc(S(=O)(=O)NC(=O)NC2CCCCC2)cc1 [GLYBURIDE],1000

# Now from value to molecule:
row,IC50 [nM],SMILES
1,1000,CC[N+](CC)(CC)CC [TETRYLAMMONIUM]
2,1000,CC(C)NCC(O)c1ccc(NS(C)(=O)=O)cc1 (stereo not given) [SOTALOL]
3,1000,CN(CCOc1ccc(NS(C)(=O)=O)cc1)CCc1ccc(NS(C)(=O)=O)cc1 [DOFETILIDE]

# Molecular target: Potassium voltage-gated channel subfamily A member 3 (Homo sapiens, UniProt P22001)
# Sequence (P22001 whole entry): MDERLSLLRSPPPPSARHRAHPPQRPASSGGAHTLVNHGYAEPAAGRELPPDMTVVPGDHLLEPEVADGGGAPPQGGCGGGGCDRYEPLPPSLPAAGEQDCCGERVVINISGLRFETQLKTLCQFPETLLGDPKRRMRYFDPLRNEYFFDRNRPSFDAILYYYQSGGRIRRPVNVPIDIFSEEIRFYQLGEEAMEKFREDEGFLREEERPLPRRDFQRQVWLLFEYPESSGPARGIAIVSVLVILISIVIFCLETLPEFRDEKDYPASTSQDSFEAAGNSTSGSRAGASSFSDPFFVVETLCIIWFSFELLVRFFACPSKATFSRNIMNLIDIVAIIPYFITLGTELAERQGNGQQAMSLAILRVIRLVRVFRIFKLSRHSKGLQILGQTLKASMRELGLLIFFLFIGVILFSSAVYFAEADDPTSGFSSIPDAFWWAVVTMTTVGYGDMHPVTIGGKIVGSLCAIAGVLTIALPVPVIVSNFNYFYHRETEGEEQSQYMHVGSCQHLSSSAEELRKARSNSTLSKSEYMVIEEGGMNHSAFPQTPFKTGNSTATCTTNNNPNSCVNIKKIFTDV
# Experiment: In vitro inhibition of human T-cells voltage-gated potassium channel subunit Kv1.3
# Assay type: cell-based, T-cell
row,IC50 [nM],SMILES
1,200,COc1ccc(CCCN2CCC(COC(c3ccccc3)c3ccccc3)CC2)cc1
